From ChEMBL document CHEMBL1125599, “Cholinergic activity of acetylenic imidazoles and related compounds” (J Med Chem, 1991)

Key:
[1] = tested on: Mus musculus; experiment: ED50 value as cholinergic agonism by measuring lacrimation in mice (in vivo); assay type: functional
[2] = tested on: Mus musculus; experiment: ED50 value as cholinergic agonist by measuring salivation in mice (in vivo); assay type: functional
[3] = target: Muscarinic acetylcholine receptor; experiment: Binding affinity to muscarinic acetylcholine receptor was determined in presence of [3H]QNB radioligand (in vitro); assay type: protein assay
[4] = target: Muscarinic acetylcholine receptor (Rattus norvegicus) (UniProt P08482+P08483+P08485+P08911+P10980); experiment: Ratio of Ki value for QNB to that of Ki value for Oxo-M.; assay type: protein assay
[5] = tested on: Mus musculus; experiment: ED50 value determined as oxotremorine antagonism by measuring salivation in mice (in vivo); assay type: functional
[6] = tested on: Mus musculus; experiment: ED50 value as cholinergic agonist by measuring tremors in mice (in vivo); assay type: functional
[7] = tested on: Mus musculus; experiment: ED50 value determined as oxotremorine antagonism by measuring lacrimation in mice (in vivo); assay type: functional
[8] = target: Muscarinic acetylcholine receptor; experiment: Binding affinity to muscarinic acetylcholine receptor was determined in presence of [3H]OXO-M radioligand (in vitro); assay type: protein assay
[9] = tested on: Mus musculus; experiment: ED50 value determined as oxotremorine antagonism by measuring tremors in mice (in vivo); assay type: functional

## O=C1CCCN1CC#CCN1CCCC1 [OXOTREMORINE]
[1]
  ED50: 0.28 mg/kg
[2]
  ED50: 0.221 mg/kg
[3]
  Ki: 193 nM
[4]
  Ki ratio: 386

## CN(C)CC#CCN1CCN(C)C1=O
[5]
  ED50: > 10 mg/kg
[1]
  ED50: 0.54 mg/kg
[2]
  ED50: 0.54 mg/kg
[6]
  ED50: 0.37 mg/kg
[7]
  ED50: > 10 mg/kg
[8]
  Ki: 4.5 nM
[3]
  Ki: 180 nM
[4]
  Ki ratio: 40

## CN(C)CC#CCN1CCCC1=O
[8]
  Ki: 1.1 nM
[3]
  Ki: 2600 nM
[4]
  Ki ratio: 2360

## O=C1CCCN1CC#CCn1cncn1
[5]
  ED50: > 100 mg/kg
[9]
  ED50: > 100 mg/kg
[1]
  ED50: > 100 mg/kg
[2]
  ED50: > 100 mg/kg
[6]
  ED50: > 100 mg/kg
[7]
  ED50: > 100 mg/kg
[8]
  Ki: > 10000 nM
[3]
  Ki: > 10000 nM

## CN(C)CC#CCN(C)C(=O)N(C)C
[5]
  ED50: > 100 mg/kg
[9]
  ED50: > 100 mg/kg
[1]
  ED50: 6.6 mg/kg
[2]
  ED50: 8 mg/kg
[6]
  ED50: 2 mg/kg
[7]
  ED50: > 100 mg/kg
[8]
  Ki: 16 nM
[3]
  Ki: > 10000 nM

## COC(=O)N(C)CC#CCn1ccnc1
[5]
  ED50: > 100 mg/kg
[1]
  ED50: 4.5 mg/kg
[2]
  ED50: 4.5 mg/kg
[6]
  ED50: 2 mg/kg
[7]
  ED50: > 100 mg/kg
[8]
  Ki: 10.2 nM
[3]
  Ki: > 10000 nM

## CC(=O)N(C)CC#CCn1cncc1C
[5]
  ED50: > 100 mg/kg
[9]
  ED50: > 100 mg/kg
[2]
  ED50: 45 mg/kg
[6]
  ED50: 5.4 mg/kg
[7]
  ED50: 6.6 mg/kg
[8]
  Ki: 3.61 nM
[3]
  Ki: 172 nM
[4]
  Ki ratio: 48

## CC(C#CCN1CCCC1)N1CCN(C)C1=O (stereo not given)
[5]
  ED50: 25 mg/kg
[1]
  ED50: > 30 mg/kg
[2]
  ED50: > 30 mg/kg
[6]
  ED50: > 30 mg/kg
[7]
  ED50: 4.5 mg/kg
[8]
  Ki: 13 nM
[3]
  Ki: 130 nM
[4]
  Ki ratio: 10

## CC(=O)NCC#CCn1cncc1C
[5]
  ED50: 66 mg/kg
[9]
  ED50: > 100 mg/kg
[1]
  ED50: 66 mg/kg
[2]
  ED50: > 100 mg/kg
[7]
  ED50: 66 mg/kg
[8]
  Ki: 213 nM
[3]
  Ki: > 10000 nM

## CC1CCC(=O)N1CC#CCn1ccnc1 (stereo not given)
[5]
  ED50: 1.1 mg/kg
[1]
  ED50: > 100 mg/kg
[2]
  ED50: > 100 mg/kg
[6]
  ED50: > 100 mg/kg
[7]
  ED50: 0.54 mg/kg
[8]
  Ki: 23 nM
[3]
  Ki: 171 nM
[4]
  Ki ratio: 7.4

## CN(C)CC#CCN1CCNC1=O
[5]
  ED50: > 100 mg/kg
[1]
  ED50: 9.7 mg/kg
[2]
  ED50: 9.7 mg/kg
[6]
  ED50: 9.7 mg/kg
[7]
  ED50: > 100 mg/kg
[8]
  Ki: 43 nM
[3]
  Ki: > 10000 nM

## O=C1CCCN1CC#CCn1cnc2ccccc21
[5]
  ED50: > 100 mg/kg
[9]
  ED50: > 100 mg/kg
[1]
  ED50: > 100 mg/kg
[2]
  ED50: > 100 mg/kg
[6]
  ED50: > 100 mg/kg
[7]
  ED50: 80 mg/kg
[8]
  Ki: > 10000 nM
[3]
  Ki: > 10000 nM

## CCOC(=O)N(C)C(C)C#CCn1ccnc1 (stereo not given)
[5]
  ED50: 66 mg/kg
[9]
  ED50: > 100 mg/kg
[1]
  ED50: > 100 mg/kg
[2]
  ED50: > 100 mg/kg
[6]
  ED50: > 100 mg/kg
[7]
  ED50: 54 mg/kg
[8]
  Ki: 273 nM
[3]
  Ki: > 10000 nM

## CCc1nccn1CC#CCN1CCCC1=O
[5]
  ED50: 2.5 mg/kg
[1]
  ED50: > 100 mg/kg
[2]
  ED50: > 100 mg/kg
[6]
  ED50: > 100 mg/kg
[7]
  ED50: 0.54 mg/kg
[8]
  Ki: 29.1 nM
[3]
  Ki: 56.9 nM
[4]
  Ki ratio: 2

## COC(=O)N(C)C(C)C#CCN(C)C (stereo not given)
[5]
  ED50: > 100 mg/kg
[9]
  ED50: > 100 mg/kg
[1]
  ED50: 17.3 mg/kg
[2]
  ED50: 17.3 mg/kg
[6]
  ED50: 11.8 mg/kg
[7]
  ED50: > 100 mg/kg
[8]
  Ki: 16 nM
[3]
  Ki: > 10000 nM

## CC(C#CCn1ccnc1)N1CCCC1=O (stereo not given)
[5]
  ED50: 3.7 mg/kg
[1]
  ED50: > 100 mg/kg
[2]
  ED50: > 100 mg/kg
[6]
  ED50: > 100 mg/kg
[7]
  ED50: 2 mg/kg
[8]
  Ki: 33.5 nM
[3]
  Ki: 556 nM
[4]
  Ki ratio: 17

## Cc1nccn1CC#CCN1CCCC1=O
[5]
  ED50: > 100 mg/kg
[9]
  ED50: > 100 mg/kg
[2]
  ED50: 0.37 mg/kg
[6]
  ED50: 0.25 mg/kg
[7]
  ED50: 0.45 mg/kg
[8]
  Ki: 0.3 nM
[3]
  Ki: 3.8 nM
[4]
  Ki ratio: 13

## CC(=O)NCC#CCn1ccnc1
[5]
  ED50: > 100 mg/kg
[9]
  ED50: > 100 mg/kg
[1]
  ED50: > 100 mg/kg
[2]
  ED50: > 100 mg/kg
[7]
  ED50: > 100 mg/kg
[8]
  Ki: 187 nM
[3]
  Ki: > 10000 nM

## Cc1cn(CC#CCN2CCCC2=O)c(C)n1
[5]
  ED50: 14.2 mg/kg
[1]
  ED50: > 100 mg/kg
[2]
  ED50: > 100 mg/kg
[6]
  ED50: > 100 mg/kg
[7]
  ED50: 8 mg/kg
[8]
  Ki: 68 nM
[3]
  Ki: 160 nM
[4]
  Ki ratio: 2.4

## Cc1cncn1CC#CCN1CCN(C)C1=O
[5]
  ED50: > 100 mg/kg
[9]
  ED50: > 100 mg/kg
[2]
  ED50: 14 mg/kg
[6]
  ED50: 2.5 mg/kg
[7]
  ED50: 14 mg/kg
[8]
  Ki: 8.6 nM
[3]
  Ki: 381 nM
[4]
  Ki ratio: 44

## Cc1cn(CC#CCN2CCCC2=O)cn1
[5]
  ED50: 37 mg/kg
[9]
  ED50: > 100 mg/kg
[1]
  ED50: > 100 mg/kg
[2]
  ED50: > 100 mg/kg
[7]
  ED50: 14.2 mg/kg
[8]
  Ki: 10.3 nM
[3]
  Ki: 377 nM
[4]
  Ki ratio: 37
